The record followed here is patent US9365582B2, “Macrocyclic inhibitors of hepatitis C virus” (Janssen Sciences Ireland UC, priority 2006, dated 2016).

For test [1], the system named is HCV replicons (Huh-7 luc/neo cells, NS3-NS5B regions of HCV type 1b). In words: Replicon assay (Huh-Luc cells, luciferase readout). The format is cell-based. The note with it: Hepatitis C virus, Huh-7, 72 h, read-out: EC50 (μM) Replicon assay. From the text:
This model, while not a complete infection model for HCV, currently is widely accepted as an efficacious model of autonomous HCV RNA replication. […] It will be appreciated that it is important to distinguish between compounds that specifically interfere with HCV functions from those that exert cytotoxic or cytostatic effects in the HCV replicon model, and as a consequence cause a decrease in HCV RNA or linked reporter enzyme concentration. Assays are known in the field for the evaluation of cellular cytotoxicity based for example on the activity of mitochondrial enzymes using fluorogenic redox dyes such as resazurin. Furthermore, cellular counter screens exist for the evaluation of non-selective inhibition of linked reporter gene activity, such as firefly luciferase.
The compounds of formula (I) were examined for activity in the inhibition of HCV RNA replication in a cellular assay. […] In essence, the method was as follows.
The assay utilized the stably transfected cell line Huh-7 luc/neo (hereafter referred to as Huh-Luc). This cell line harbors an RNA encoding a bicistronic expression construct comprising the wild type NS3-NS5B regions of HCV type 1b translated from an internal ribosome entry site (IRES) from encephalomyocarditis virus (EMCV), preceded by a reporter portion (FfL-luciferase), and a selectable marker portion (neo^R, neomycine phosphotransferase). The construct is bordered by 5′ and 3′ NTRs (non-translated regions) from HCV type Ib. Continued culture of the replicon cells in the presence of G418 (neo^R) is dependent on the replication of the HCV RNA. The stably transfected replicon cells that express HCV RNA, which replicates autonomously and to high levels, encoding inter alia luciferase, were used for screening the antiviral compounds.
The replicon cells were plated in 384 well plates in the presence of the test and control compounds which were added in various concentrations. Following an incubation of three days, HCV replication was measured by assaying luciferase activity (using standard luciferase assay substrates and reagents and a Perkin Elmer ViewLux™ ultraHTS microplate imager). […] The inhibitory activity of the compound on luciferase activity was monitored on the Huh-Luc cells, enabling a dose-response curve for each test compound.
In general terms: Replicon systems follow genome replication, usually without infectious particles.

The target in a further test is HCV NS3/4A protease (Hepatitis C virus genotype 1a (isolate H77) (HCV), UniProt P27958). The experiment in a line: Inhibition assay (enzymatic assay) of full-length NS3 protease with NS4A cofactor. It is filed as biochemical. Conditions: full-length NS3 1 nM, 25 μM NS4A cofactor, 0.5 μM depsipeptide substrate, 30° C., competitive inhibition model. Here is the method: The aim of this in vitro assay was to measure the inhibition of HCV NS3/4A protease complexes by the compounds of the present invention.
Inhibitors were dissolved in DMSO, sonicated for 30 sec and vortexed. The solutions were stored at −20° C. between measurements.
The final concentration of DMSO in the assay sample was adjusted to 3.3%. […] A minimum of two replicates was performed for all measurements.

Sequence of HCV NS3/4A protease (P27958 1027-1657): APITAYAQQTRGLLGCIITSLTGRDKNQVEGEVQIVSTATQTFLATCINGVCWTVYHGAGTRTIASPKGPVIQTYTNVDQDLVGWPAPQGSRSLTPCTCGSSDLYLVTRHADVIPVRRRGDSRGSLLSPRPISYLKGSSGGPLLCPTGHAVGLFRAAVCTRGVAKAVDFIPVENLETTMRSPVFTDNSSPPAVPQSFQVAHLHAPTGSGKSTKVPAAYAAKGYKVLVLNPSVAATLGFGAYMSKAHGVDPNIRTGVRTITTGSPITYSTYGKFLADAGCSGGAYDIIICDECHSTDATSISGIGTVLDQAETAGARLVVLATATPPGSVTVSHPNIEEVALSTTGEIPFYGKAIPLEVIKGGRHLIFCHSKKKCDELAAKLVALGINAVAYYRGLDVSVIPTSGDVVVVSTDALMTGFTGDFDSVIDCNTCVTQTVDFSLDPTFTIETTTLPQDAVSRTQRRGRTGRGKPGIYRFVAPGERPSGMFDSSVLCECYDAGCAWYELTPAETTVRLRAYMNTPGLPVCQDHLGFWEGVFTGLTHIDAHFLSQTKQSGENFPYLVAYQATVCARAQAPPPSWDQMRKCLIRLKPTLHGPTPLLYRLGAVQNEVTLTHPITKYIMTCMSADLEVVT

As for `CCOc1cc(O[C@@H]2C[C@H]3C(=O)N[C@]4(C(=O)NS(=O)(=O)C5CC5)C[C@H]4/C=C\CCCCN(C)C(=O)[C@@H]3C2)c2cccc(C)c2n1` [Compound 13, N-[17-[2-ethoxy-8-methylquinolin-4-yloxy]-13-methyl-2,14-dioxo-3,13-diazatricyclo[13.3.0.0^4,6]octadec-7-ene-4-carbonyl](cyclopropyl)-sulfonamide], the EC50 (in general, the concentration giving half of the maximal effect) in test [1] was determined as 0.014 µM. For the same molecule, the affinity at HCV NS3/4A protease corresponds to a Ki of 0.0001 µM.

`CCOc1cc(O[C@@H]2C[C@H]3C(=O)N[C@]4(C(=O)NS(=O)(=O)C5CC5)C[C@H]4/C=C\CCCCN(C)C(=O)[C@@H]3C2)c2cccc(Cl)c2n1` [Compound 11, N-[17-[8-chloro-2-ethoxyquinolin-4-yloxy]-13-methyl-2,14-dioxo-3,13-diazatricyclo[13.3.0.0^4,6]octadec-7-ene-4-carbonyl](cyclopropyl)-sulfonamide]: the EC50 in test [1] came out at 0.0063 µM. At HCV NS3/4A protease, the Ki – broadly, the dissociation constant of the complex between target and ligand, obtained from inhibition or displacement – stood at 0.0005 µM.

`CCOc1cc(O[C@@H]2C[C@H]3C(=O)N[C@]4(C(=O)O)C[C@H]4/C=C\CCCCN(C)C(=O)[C@@H]3C2)c2ccc3c(c2n1)OCO3` [Compound 14, 17-[8-ethoxy[1,3]dioxolo[4,5-h]quinolin-6-yloxy]-13-methyl-2,14-dioxo-3,13-diazatricyclo[13.3.0.0^4,6]octadec-7-ene-4-carboxylic acid]: in test [1], the EC50 amounted to 3.3 µM. Also, affinity on HCV NS3/4A protease was put at a Ki of 0.058 µM.

In the case of `CCOc1cc(O[C@@H]2C[C@H]3C(=O)N[C@]4(C(=O)NS(=O)(=O)C5CC5)C[C@H]4/C=C\CCCCN(C)C(=O)[C@@H]3C2)c2ccc3c(c2n1)CCO3` [Compound 9, N-[17-[2-ethoxy-8,9-dihydrofuro[2,3-h]quinolin-4-yloxy]-13-methyl-2,14-dioxo-3,13-diazatricyclo[13.3.0.0^4,6]octadec-7-ene-4-carbonyl](cyclo-propyl)sulfonamide], the EC50 in test [1] was 0.029 µM. Moreover, on HCV NS3/4A protease, the Ki was 0.0008 µM.

In the case of `CCOc1cc(O[C@@H]2C[C@H]3C(=O)N[C@]4(C(=O)O)C[C@H]4/C=C\CCCCN(C)C(=O)[C@@H]3C2)c2cccc(Cl)c2n1` [Compound 10, 17-[8-chloro-2-ethoxyquinolin-4-yloxy]-13-methyl-2,14-dioxo-3,13-diazatricyclo[13.3.0.0^4,6]octadec-7-ene-4-carboxylic acid], the 50% effective concentration (EC50) in test [1] was 3.81 µM. This molecule came in with a Ki at HCV NS3/4A protease of 0.0077 µM.

For `CCOc1cc(O[C@@H]2C[C@H]3C(=O)N[C@]4(C(=O)O)C[C@H]4/C=C\CCCCN(C)C(=O)[C@@H]3C2)c2cccc(C)c2n1` [Compound 12, 17-[2-ethoxy-8-methylquinolin-4-yloxy]-13-methyl-2,14-dioxo-3,13-diazatricyclo[13.3.0.0^4,6]octadec-7-ene-4-carboxylic acid], the EC50 in test [1] is 7.5 µM. The molecule further displayed a Ki on HCV NS3/4A protease of 0.017 µM.

As for `CCOc1cc(O[C@@H]2C[C@H]3C(=O)N[C@]4(C(=O)NS(=O)(=O)C5CC5)C[C@H]4/C=C\CCCCN(C)C(=O)[C@@H]3C2)c2ccc3c(c2n1)OCO3` [Compound 15, N-[17-[8-ethoxy[1,3]dioxolo[4,5-h]quinolin-6-yloxy]-13-methyl-2,14-dioxo-3,13-diazatricyclo[13.3.0.0^4,6]octadec-7-ene-4-carbonyl]-(cyclo-propyl)sulfonamide], in test [1], the EC50 worked out at 0.0035 µM. At HCV NS3/4A protease, the affinity corresponds to a Ki of 0.0002 µM.

`CCOc1cc(O[C@@H]2C[C@H]3C(=O)N[C@]4(C(=O)NS(=O)(=O)C5CC5)C[C@H]4/C=C\CCCCN(C)C(=O)[C@@H]3C2)c2ccc(OC)cc2n1` [Compound 5, N-[17-[2-ethoxy-7-methoxyquinolin-4-yloxy]-13-methyl-2,14-dioxo-3,13-diazatricyclo[13.3.0.0^4,6]octadec-7-ene-4-carbonyl](cyclopropyl)-sulfonamide]: in test [1], the EC50 stood at 0.014 µM. The molecule also yielded a Ki on HCV NS3/4A protease of 0.0001 µM.

`CCOc1cc(O[C@@H]2C[C@H]3C(=O)N[C@]4(C(=O)NS(=O)(=O)C5CC5)C[C@H]4/C=C\CCCCN(C)C(=O)[C@@H]3C2)c2ccc(OC)c(Br)c2n1` [Compound 7, N-[17-[8-bromo-2-ethoxy-7-methoxyquinolin-4-yloxy]-13-methyl-2,14-dioxo-3,13-diazatricyclo[13.3.0.0^4,6]octadec-7-ene-4-carbonyl](cyclo-propyl)sulfonamide]: the EC50 in test [1] was 0.0035 µM. At HCV NS3/4A protease, the affinity corresponds to a Ki of 0.0001 µM.

For `CCOc1cc(O[C@@H]2C[C@H]3C(=O)N[C@]4(C(=O)O)C[C@H]4/C=C\CCCCN(C)C(=O)[C@@H]3C2)c2ccc(OC)cc2n1` [Compound 4, 17-[2-ethoxy-7-methoxyquinolin-4-yloxy]-13-methyl-2,14-dioxo-3,13-diazatricyclo[13.3.0.0^4,6]octadec-7-ene-4-carboxylic acid], the EC50 in test [1] was 4.26 µM. In addition, the Ki on HCV NS3/4A protease came out at 0.046 µM.
